For orientation: logP means a log measure of how a compound divides between an organic and an aqueous phase. High values mean higher lipophilicity, low ones lower lipophilicity. Consider `CN1CC=C(c2ccncc2)CC1`, for which the logP came to 1.25.

Regarding `CN1CC=C(c2cccc(N)c2)CC1`, the logP was 1.47.

Turning to `Cc1ccccc1C1=CCN(C)CC1`, the logP worked out at 3.1.

`CN1CC=C(c2cccs2)CC1` returned a logP of 2.51.

Turning to `C1=C(c2ccccc2)CCN(CCc2ccccc2)C1`, the logP is 3.98.

In the case of `CCN1CC=C(c2ccccc2)CC1`, the logP amounted to 3.18.

As for `CN1CC=C(c2ccc(Cl)cc2)CC1`, the logP was 3.32.

In turn, `Fc1ccc(C2=CCNCC2)cc1` returned a logP of 2.37.

`CC1=C(c2ccccc2)CCN(C)C1` gave a logP of 3.18.

Take `OCCN1CC=C(c2ccccc2)CC1`: the logP stood at 2.

`CN1CC=C(c2ccc(N)cc2)CC1` yielded a logP of 1.48.

`C1=C(c2ccccc2)CCNC1` showed a logP of 1.99.

These data come from the SangsterLogP compilation.
